# In patent US12226410B2, “Methods for enhancing cellular clearance of pathological molecules via activation of the cellular protein ykt6” (NORTHWESTERN UNIVERSITY, priority 2019, dated 2025):
# Experiments:
# H4 a-syn cells = assay: Immunofluorescence of GCase and LAMP2A in FTI-treated H4 a-syn cells; format: cell-based, human; settings: 5 nM FTI
# Experimental: FIGS. 5A, 5B, 5C, 5D, 5E, 5F, and 5G. Reducing farnesyl-ykt6 enhances SNARE assembly and improves the lysosomal targeting of GCase. 5A) Ykt6 membrane shift analysis of SH-SY5Y cells expressing GFP-ykt6 wt or CS (n=3). 5B) Co-IP of GFP-ykt6 and bet1 in A53T iPSn (n=3). 5C) Ykt6 membrane shift analysis in FTI-treated SH-SY5Y wt a-syn cells or A53T iPSn (5 nM farnesyltransferase inhibitors (FTI) LNK-754 (FTI-1) or LNK-3248 (FTI-2) for 5 days) (n=4). Sec22b was measured to assess specificity. 5D) SEC/western blot of FTI-1 treated SH-SY5Y cells. Quantification is shown below. […]
# FIGS. 14A, 14B, 14C, 14D, 14E, 14F, and 14G. […] 14A) Farnesylation of ykt6 was measured in SH-SY5Y cells expressing GFP-ykt6. […] Biotin was detected with streptavidin-conjugated IRDye800, and normalized to total levels of GFP-ykt6. […] Ykt6 complex levels eluting at ca. 120A were quantified on the right (n=2). […] 14E) Raw quantification data of LAMP2A immunofluorescence intensity of individual cells from H4 cells treated with FTI, +/−ykt6 KD. […] For all quantifications, values are the mean+/−SEM, *p<0.05.
# For GCase/LAMP2 colocalization, cultures were fixed in 4% PFA in PBS for 20 minutes, then permeabilized in 0.2% saponin in 0.2% glycine buffer as described previously (Mazzulli et al., 2016b). […] Cells were mounted in DAPI-Fluoromount G (Southern Biotech) and analyzed by confocal microscopy as above. […]
# A53T iPSn = assay: Measurement of neuron viability (neurofilament); format: cell-based, human; settings: A53T iPSn analyzed at day 100; 5 nM, 14d
# Experimental: FIGS. 6A, 6B, 6C, 6D, 6E, 6F, and 6G. FTIs enhance lysosomal GCase activity and reduce pathological a-syn by blocking ykt6 farnesylation. 6A) GCase activity in FTI-treated A53T iPSn at d80 (LNK-754 5 nM, 5d). 6B) GCase activity in FTI-treated A53T iPSn expressing empty vector (vect) or ykt6-CS (n=4). 6C) Lysosomal GCase activity was assessed in FTI-treated SHSY5Y cells transfected with scrambled or ykt6 shRNA (KD) (n=3). 6D) Quantification of Triton X-100 soluble (T-sol) a-syn by western blot from FTI-treated A53T iPSn (5 nM, 7d). *, non-specific band. (n=3). 6E) Quantification of insoluble a-syn from A53T iPSn as in D (n=3). 6F) Insoluble a-syn in FTI-treated H4 cells (5 nM, 5 days) transfected with either scrambled or ykt6 shRNA (n=6). 6G) Neuron viability was assessed in FTI-treated A53T iPSn (5 nM, 14d from d86-d100) by quantification of neurofilament protein. […]
# Measurement of neuron viability. iPSC-neurons were seeded on a PDL/laminin coated 96 well plate and analyzed and treated with either lentivirus expressing ykt6 CS vs empty vector, or DMSO vs 5 nM FTI (LNK-754) for 14 days. […] Neurofilament intensity was determined using Image Studio software (version 2.1 Li-cor) and normalized to cell volume. Replicates represent values from four individual culture wells and were analyzed by Student's T-test using GraphPad Prism software V 6.0. […]
structure (smiles),measurement,setting,value
C#Cc1cccc(-c2cc(=O)n(C)c3ccc([C@](O)(c4ccc(Cl)cc4)c4cncn4C)cc23)c1 [LNK-754],levels of LAMP2A and GCase by immunostaining,H4 a-syn cells,elevated the levels of LAMP2A and GCase
same,neuron viability,A53T iPSn,improved neuron viability
